# Assay results as given in publication PMC6934184, “Selective DNA-PKcs inhibition extends the therapeutic index of localized radiotherapy and chemotherapy” (The Journal of Clinical Investigation, 2019).
# Molecular target: T1, AMPK (A1/B1/G3) (Homo sapiens, UniProt Q13131)
# T1 construct: purchased Thermo Fisher Scientific (Life Technologies) SelectScreen
# Test: SelectScreen LanthaScreen
# Type: binding
# Conditions: read-out: % displacement
# How it was run: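 Percent values come from Thermo SelectScreen profiling of NU5455, combining activity and binding assays. CSF1R was run in Z'LYTE format at Km app ATP, and CAMK1 in Adapta format with ATP listed at 10.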
# T1 sequence (Q13131 whole entry): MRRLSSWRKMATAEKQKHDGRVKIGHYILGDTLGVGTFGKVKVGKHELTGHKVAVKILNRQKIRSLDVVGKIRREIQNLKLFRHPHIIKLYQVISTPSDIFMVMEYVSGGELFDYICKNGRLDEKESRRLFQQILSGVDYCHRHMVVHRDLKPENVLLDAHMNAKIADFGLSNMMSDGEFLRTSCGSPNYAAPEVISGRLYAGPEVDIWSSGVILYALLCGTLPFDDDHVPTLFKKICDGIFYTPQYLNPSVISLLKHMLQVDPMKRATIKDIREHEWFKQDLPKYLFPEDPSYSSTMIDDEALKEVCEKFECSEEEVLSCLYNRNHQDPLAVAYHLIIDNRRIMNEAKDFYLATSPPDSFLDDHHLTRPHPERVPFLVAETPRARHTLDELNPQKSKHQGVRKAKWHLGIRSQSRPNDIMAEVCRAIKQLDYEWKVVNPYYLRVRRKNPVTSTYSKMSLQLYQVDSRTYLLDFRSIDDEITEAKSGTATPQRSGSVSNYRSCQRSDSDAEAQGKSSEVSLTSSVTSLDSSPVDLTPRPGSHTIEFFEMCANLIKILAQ
# T1 sequence (Q9Y478 whole entry partner): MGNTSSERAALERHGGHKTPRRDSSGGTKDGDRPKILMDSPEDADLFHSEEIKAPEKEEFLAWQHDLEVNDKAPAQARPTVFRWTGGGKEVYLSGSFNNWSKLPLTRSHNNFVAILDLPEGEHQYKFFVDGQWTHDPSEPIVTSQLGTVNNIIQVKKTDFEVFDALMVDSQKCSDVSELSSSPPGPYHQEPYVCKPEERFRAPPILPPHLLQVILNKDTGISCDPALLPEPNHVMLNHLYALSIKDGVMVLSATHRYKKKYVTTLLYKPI
# T1 sequence (Q9UGI9 whole entry partner): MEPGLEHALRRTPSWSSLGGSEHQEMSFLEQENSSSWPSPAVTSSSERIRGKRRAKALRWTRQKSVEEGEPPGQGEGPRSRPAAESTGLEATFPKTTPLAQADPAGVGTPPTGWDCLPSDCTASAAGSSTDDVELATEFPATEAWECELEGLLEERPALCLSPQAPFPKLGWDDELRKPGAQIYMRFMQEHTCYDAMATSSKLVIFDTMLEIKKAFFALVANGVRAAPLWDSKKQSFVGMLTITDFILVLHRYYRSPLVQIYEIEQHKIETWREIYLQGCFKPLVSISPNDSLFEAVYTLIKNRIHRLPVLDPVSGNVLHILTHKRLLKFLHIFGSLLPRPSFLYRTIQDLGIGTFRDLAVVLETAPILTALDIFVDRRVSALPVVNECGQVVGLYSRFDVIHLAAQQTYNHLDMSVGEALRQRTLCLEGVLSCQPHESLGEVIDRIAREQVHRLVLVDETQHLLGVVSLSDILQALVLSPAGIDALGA
smiles,measurement,value
CN(C(=O)CN1CCOCC1)c1ccc2sc3c(-c4cccc5c(=O)cc(N6CC7CCC(C6)O7)oc45)cccc3c2c1 [NU5455],inhibition at 1 µM,0.2%
